Consider three molecules from patent EP0037667A2, “Immobilized lactase, its preparation and use” (priority 1980, dated 1981).

Assay [1] has as its target lactase derived from Escherichia coli (β-galactosidase; enzyme number 3. 2. 1. 23) (Escherichia coli, UniProt P00722). Particulars: E. coli lactase, cited from earlier work.
In assay [2] the target is T1, lactase originated from Aspergillus oryzae (extracellular enzyme, unimmobilized) (Aspergillus oryzae, UniProt Q2UCU3).
T1 construct: obtained from a strain belonging to Aspergillus oryzae as extracellular enzyme; host or cells: Aspergillus oryzae strain (natural producer, secreted)
T1 sequence (Q2UCU3 19-1005): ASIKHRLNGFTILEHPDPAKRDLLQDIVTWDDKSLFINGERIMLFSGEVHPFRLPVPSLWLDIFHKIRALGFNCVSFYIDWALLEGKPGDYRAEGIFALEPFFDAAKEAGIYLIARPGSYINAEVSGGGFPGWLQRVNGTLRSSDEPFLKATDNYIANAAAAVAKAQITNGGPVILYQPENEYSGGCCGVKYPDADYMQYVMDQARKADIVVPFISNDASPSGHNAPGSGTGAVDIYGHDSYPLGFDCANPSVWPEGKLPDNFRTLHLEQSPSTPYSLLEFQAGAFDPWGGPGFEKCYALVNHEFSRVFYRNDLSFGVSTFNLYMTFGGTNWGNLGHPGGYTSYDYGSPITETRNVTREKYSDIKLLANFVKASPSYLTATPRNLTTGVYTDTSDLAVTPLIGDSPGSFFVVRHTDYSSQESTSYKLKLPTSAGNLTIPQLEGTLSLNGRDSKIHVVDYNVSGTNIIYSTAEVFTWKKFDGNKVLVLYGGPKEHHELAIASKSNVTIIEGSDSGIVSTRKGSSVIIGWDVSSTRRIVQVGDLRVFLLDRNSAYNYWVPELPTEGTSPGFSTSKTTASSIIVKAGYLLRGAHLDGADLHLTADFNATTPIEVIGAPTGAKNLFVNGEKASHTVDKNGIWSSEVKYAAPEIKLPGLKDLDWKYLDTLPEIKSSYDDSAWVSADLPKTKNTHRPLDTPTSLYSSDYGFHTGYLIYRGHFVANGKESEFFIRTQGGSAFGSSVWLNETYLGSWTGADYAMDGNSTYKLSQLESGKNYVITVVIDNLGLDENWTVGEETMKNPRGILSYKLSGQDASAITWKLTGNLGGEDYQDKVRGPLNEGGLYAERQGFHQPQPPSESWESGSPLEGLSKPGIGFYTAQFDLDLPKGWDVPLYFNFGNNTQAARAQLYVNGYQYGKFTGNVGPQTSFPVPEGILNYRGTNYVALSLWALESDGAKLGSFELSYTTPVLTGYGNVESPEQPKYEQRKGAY
Kind of assay: Km and Ki of free (unimmobilized) Aspergillus oryzae lactase. The format is biochemical. Conditions: for Ki: substrate, lactose, free enzyme, read-out: Inhibition constant Ki by galactose. As for the experimental part: The lactase used in the present invention is obtained from a strain belonging to Aspergillus oryzae as extracellular enzyme, and has the following characteristics:
Km = 0.10 ± 0.05 mole/ℓ (pH 4.5, 30°C, substrate; lactose), and Km = 0.3 ± 0.15 mole/ℓ (pH 6.65, 30°C, substrate; lactose).
Ki = (6 ± 3) x 10^-3 mole/ℓ (pH 4.5, 30°C, substrate; lactose), and Ki = (4 ± 3) x 10^-3 mole/ℓ (pH 6.65, 30°C, substrate; lactose).
In the present specification, 1 ILU is defined as the amount of lactase which produces […] per minute of glucose at pH 4.5 at 30°C when a 13.3 w/v % of lactose solution is used as the substrate. The quantity of glucose thus prepared is defined by using glucose oxidase-peroxidase- dye system. When the measurement of the activity (unit) is carried out at a different pH or temperature, the pH or the temperature will specifically be given in each case.

The target in assay [3] is T2, immobilized lactase: Aspergillus oryzae lactase covalently attached through glutaraldehyde on macroporous phenol-formaldehyde based anion-exchange resin (Aspergillus oryzae, UniProt Q2UCU3).
T2 construct: obtained from a strain belonging to Aspergillus oryzae as extracellular enzyme; host or cells: Aspergillus oryzae strain (natural producer, secreted)
T2 sequence (Q2UCU3 19-1005): as above
Kind of assay: Km and Ki of the immobilized lactase, general properties. The class given is biochemical. Particulars: pH 6.65, 30°C, substrate; lactose; immobilized enzyme; read-out: Inhibition constant by galactose Ki. As for the experimental part:
The enzymatical properties of the present immobilized lactase are given below.
Km = 0.2 ± 0.1 mole/ℓ (both pH 4.5, 30°C, substrate; lactose, and pH 6.65, 30°C, substrate; lactose)
Ki = (8 ± 5) x […] mole/ℓ (pH 4.5, 30°C, substrate; lactose) and Ki = (3 ± 2) x 10^-2 mole/ℓ (pH 6.65, 30°C, substrate; lactose).
Both values of Km and Ki for the immobilized enzyme tend to increase with increase in the concentration of the glutaraldehyde solution used for the treatment, and moreover, in the measurement thereof, it is considerably difficult to obtain the results with good reproducibility. Therefore, the above value given for Km and Ki should be understood taking this respect into consideration."

Read-outs that look alike come from different tables or passages of the source.

Chain of lactase derived from Escherichia coli (β-galactosidase; enzyme number 3. 2. 1. 23) (P00722 2-1024): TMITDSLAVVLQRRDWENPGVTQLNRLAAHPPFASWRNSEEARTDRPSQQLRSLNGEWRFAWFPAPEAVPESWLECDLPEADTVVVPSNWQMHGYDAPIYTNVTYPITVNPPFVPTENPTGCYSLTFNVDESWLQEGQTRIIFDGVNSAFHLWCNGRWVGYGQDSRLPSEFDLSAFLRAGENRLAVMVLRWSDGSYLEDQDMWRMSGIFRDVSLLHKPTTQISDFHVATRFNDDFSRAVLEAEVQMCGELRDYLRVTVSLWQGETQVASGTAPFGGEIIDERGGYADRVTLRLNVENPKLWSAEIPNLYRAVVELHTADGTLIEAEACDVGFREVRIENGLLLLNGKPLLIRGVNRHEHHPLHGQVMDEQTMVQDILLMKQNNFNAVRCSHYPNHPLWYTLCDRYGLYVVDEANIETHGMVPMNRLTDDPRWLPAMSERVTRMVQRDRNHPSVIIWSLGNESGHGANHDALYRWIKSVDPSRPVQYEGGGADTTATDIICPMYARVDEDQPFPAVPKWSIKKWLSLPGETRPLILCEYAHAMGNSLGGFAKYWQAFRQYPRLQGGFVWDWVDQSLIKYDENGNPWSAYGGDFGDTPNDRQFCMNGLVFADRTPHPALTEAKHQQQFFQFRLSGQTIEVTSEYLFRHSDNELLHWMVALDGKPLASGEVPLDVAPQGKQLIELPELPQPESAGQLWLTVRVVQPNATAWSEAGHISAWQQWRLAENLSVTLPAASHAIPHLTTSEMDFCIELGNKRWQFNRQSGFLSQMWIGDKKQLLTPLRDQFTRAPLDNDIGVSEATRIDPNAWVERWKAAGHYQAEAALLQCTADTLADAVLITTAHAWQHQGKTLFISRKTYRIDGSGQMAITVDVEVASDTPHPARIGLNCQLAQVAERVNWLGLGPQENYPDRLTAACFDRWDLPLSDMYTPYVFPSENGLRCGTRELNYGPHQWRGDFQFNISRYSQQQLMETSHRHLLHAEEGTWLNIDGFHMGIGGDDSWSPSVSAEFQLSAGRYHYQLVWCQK

A word on the Km: it is the concentration of substrate that gives half-maximal velocity. As for `O=[N+]([O-])c1ccccc1O[C@@H]1O[C@H](CO)[C@H](O)[C@H](O)[C@H]1O` [ONPG, ortho-nitrophenyl-β-D-galactopyranoside, reference compound], the Michaelis constant (Km) in assay [1] (read-out: Michaelis constant Km (substrate; ONPG)) was 0.95 mM.

`OC[C@H]1OC(O)[C@H](O)[C@@H](O)[C@H]1O` (stereo partly drawn) [galactose]: the Ki is 6 mM in assay [2] (pH 4.5, 30°C); 4 mM in assay [2] (pH 6.65, 30°C); 30 mM in assay [3].

In the case of `OC[C@H]1O[C@@H](O[C@H]2[C@H](O)[C@@H](O)C(O)O[C@@H]2CO)[C@H](O)[C@@H](O)[C@H]1O` (stereo partly drawn) [lactose], the Km in assay [2] (pH 4.5, 30°C, dry lactase powder used in Example 3 (Shinnihon Kagaku Kogyo, 80 ILU/mg)) is 100 mM; in assay [1] (read-out: Michaelis constant Km (substrate; lactose)), 7.5 mM.
